Experimental data: paper PMC5344518, “Anti-trypanosomal activity of non-peptidic nitrile-based cysteine protease inhibitors” (PLoS Neglected Tropical Diseases, 2017)
Like-named read-outs stand apart in the source and are kept apart here. Marks after values point to notes of the source that are not given here.

Assays:
[1] = tested on: amastigote forms of T. cruzi CL Brener strain; assay: Anti-trypanosomal activity assay (beta-galactosidase reporter, infected LLC-MK2 cells); format: cell-based; details: Trypanosoma cruzi
Description: Assays were performed against amastigote forms of T. cruzi CL Brener strain, which expresses β-galactosidase derived from Escherichia coli, infecting monkey kidney (LLC-MK2) cells as described. Previously, LLC-MK2 host cells were cultivated in 96-wells microplates (10^3 cells/well). […] Then, the wells were washed with PBS to remove the extracellular parasites and the tested compounds were added in the final concentrations of 0.031, 0.125, 0.5, 2.0, 8.0, 32.0, 128 and 512 μM. After this, the microplates were incubated at 37°C, in CO2 atmosphere (5%), for 5 days. Then, 10 μL of FluoReporter lacZ/Galactosidase Quantitation Kit (Molecular Probes, ThermoFisher Scientific) were added and after 30 minutes the fluorometric reaction was read in a microplate reader (Synergy H1, Biotek) at 386 nm excitation and 448 nm emission. The metabolism of the substrate is directly correlated with the amount of β-galactosidase activity and, therefore, the number amastigotes. The percentage of activity for each compound was determined from the following formula: %activity = 100 –{[(X-PC)/(NC-PC)]x100}, where the optical density values of the samples (X), the positive controls (PC) and negative controls (NC) were used. Culture medium alone was used as positive control (PC) and cells with medium and 0.6% DMSO (v/v) as negative control (NC). All assays were performed in triplicate with two independent experiments.

LLC-MK2 cells = assay: Cytotoxicity in LLC-MK2 cells; format: cell-based, monkey; details: % cytotoxicity in LLC-MK2 cells at 128 μM; standard deviation (N = 6) in parentheses
Text: Table 2 Anti-trypanosomal activity of cysteine protease inhibitors. | column: Cytotox LLC-MK2 ^c

[2] = tested on: Balb/C 3T3 clone A31 cells; assay: MTT colorimetric cytotoxicity assay; format: cell-based, mouse; details: % cytotoxicity in Balb/C 3T3 clone A31 cells at 128 μM; standard deviation (N = 8) in parentheses
Description: Inhibition values were determined in the cell-based assay as previously described. […] Cells were plated at a concentration of 10^5 cell/mL in 96-well plates and incubated for 24 h. […] The cell viability was assessed during 24, 48 and 72 h using the MTT (Sigma-Aldrich) reagent, with an incubation time of 3 h. Formazan crystals were dissolved using a solubility reagent composed of DMSO, glacial acetic acid and […] for 1 h. The readout was obtained using Biotek Synergy HT plate reader at 570 nm. Benznidazole was used as control. This assay was done in quadruplicate in two independent experiments. Statistical analyses were made in GraphPad Prism 5. Concentration-response curves were fitted for the best compounds and the statistical parameters are provided with the graphs in S9 Fig in the supplemental material.

Recombinant cruzain = molecular target: T1, Recombinant cruzain (Trypanosoma cruzi, UniProt P25779); assay: Enzyme kinetic assay for cruzain (Z-FR-AMC hydrolysis); format: biochemical; details: pKi = -log10(Ki/M); uncertainty in parentheses; 37°C, pH 5.5
T1 construct: consisting of the catalytic domain of cruzipain but excluding the carboxy-terminal extension; made in house
T1 sequence (P25779 123-337 limits assumed): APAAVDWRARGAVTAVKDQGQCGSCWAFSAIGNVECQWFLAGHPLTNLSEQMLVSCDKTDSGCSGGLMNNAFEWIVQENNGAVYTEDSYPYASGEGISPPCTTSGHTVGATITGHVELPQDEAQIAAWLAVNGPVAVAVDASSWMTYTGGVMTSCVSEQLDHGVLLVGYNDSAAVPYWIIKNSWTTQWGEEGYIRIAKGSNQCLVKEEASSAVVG
Description: Recombinant cruzain, consisting of the catalytic domain of cruzipain but excluding the carboxy-terminal extension, was expressed and purified as previously described. Enzyme kinetic assays for cruzain were carried out at 37°C in 200 μL of a solution containing 100 mM acetate buffer pH 5.5, 300 mM NaCl, 5 mM dithiothreitol (DTT), 5% v/v dimethyl sulfoxide (DMSO), 0.01% v/v Triton X-100 and 0.15 nM cruzain, using Corning® 96-well black flat bottom microplates. (S)-N-(1-((cyanomethyl)amino)-1-oxo-3-phenylpropan-2-yl)benzamide was used as a positive control. The rate of the reaction was monitored using a Biotek Synergy HT plate reader through the fluorescence emission at 460 nm (excitation at 355 nm) due to the hydrolysis of the substrate Z-Phe-Arg-7-amido-4-methylcoumarin (Z-FR-AMC, Sigma-Aldrich). The enzyme stock aliquot was rapidly thawed at 37°C and kept on ice until activation, in which it was incubated for 20 min. in the assay buffer (100 mM acetate pH 5.5 and 5 mM DTT) followed by additional 2 min. incubation with inhibitors before the reaction was started by the addition of the substrate.
Visual inspection and a pre-reading of plate wells were performed to check for possible precipitation and background fluorescence, respectively. Fluorescence emission spectra were also recorded for all inhibitors, using the same excitation wavelength (355 nm) as for the fluorometric assay. […] The reaction was started by the addition of varying concentrations of the substrate and the wells monitored for a total of 5 minutes of reaction. The initial velocities of the substrate hydrolysis under first-order reaction were calculated by Gen5 Biotek software based on the linear-regression coefficient from the data fitting of Relative Fluorescence Unit (mRFU) as a function of time (min).
Each experiment was performed in duplicates for each compound being tested. A control measurement in absence of inhibitor (KM) was carried out for each setup plate and the kinetic affinity constants (Ki) were calculated from non-linear fit of Michaelis-Menten curves to the data of initial velocities as a function of eight different concentrations of the substrate Z-FR-AMC from 30.0–0.8 μM. All inhibitors were evaluated in two different concentrations, which were chosen based on a previous screening (percentage of inhibition) at 1.7 μM substrate (~KM). SigmaPlot (v. 10.0) was employed for the non-linear fit and the kinetic parameters determination.

cathepsin L [3] = molecular target: T2, cathepsin L (Homo sapiens, UniProt P07711); assay: Enzyme kinetic assay for cathepsin L; format: biochemical; details: pKi = -log10(Ki/M); uncertainty in parentheses; 37°C, pH 5.5
T2 sequence (P07711 114-333, species assumed): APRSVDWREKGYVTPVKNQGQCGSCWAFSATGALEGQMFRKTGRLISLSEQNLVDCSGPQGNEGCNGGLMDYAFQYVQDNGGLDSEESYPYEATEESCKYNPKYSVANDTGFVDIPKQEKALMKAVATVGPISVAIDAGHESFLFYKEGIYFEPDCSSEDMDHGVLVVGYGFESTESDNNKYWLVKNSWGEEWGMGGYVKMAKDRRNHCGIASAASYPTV
Description: (§1) Enzyme kinetic assays for cathepsin L were performed in a similar manner to the cruzain assays at 37°C in 200 μL of a solution containing 100 mM acetate buffer pH 5.5, 300 mM NaCl, 1 mM dithiothreitol (DTT), 1 mM EDTA, 5% v/v dimethyl sulfoxide (DMSO), 0.01% v/v Triton X-100 and 0.30 nM cathepsin L, using Corning® 96-well black flat bottom microplates. Using the QFRET technology, compounds 9–12 were tested for inhibition of cathepsin L-mediated cleavage of a synthetic peptide Z-Phe-Arg-AMC (10 μM final concentration) using 0.1 nM [final] human Cat L (prepared in-house). […]

cathepsin L [4] = molecular target: T2, cathepsin L; details: pIC50 = -log10(IC50/M); cited from earlier work
Cathepsin K = details: pIC50 = -log10(IC50/M); cited from earlier work
Cathepsin B = details: pIC50 = -log10(IC50/M); cited from earlier work
Cathepsin S = details: pIC50 = -log10(IC50/M); cited from earlier work
human Cat L = molecular target: T3, human Cat L (Homo sapiens, UniProt P07711); assay: Cat L inhibition assay (QFRET, Z-Phe-Arg-AMC cleavage); format: biochemical; details: pIC50 = -log10(IC50/M); determined using the Cat L inhibition assay method of ref. 24; pH 6.4; read-out: Cathepsin L pIC50 (converted)
T3 construct: made in house
T3 sequence (P07711 114-333): as the sequence (P07711 114-333, species assumed) above
Description: as §1

[5] = 120 h, pEC50 = -log10(EC50/M), T. cruzi CL Brener amastigotes in LLC-MK2 cells, 5 days, read-out: pEC50 (anti-trypanosomal activity) (converted)
[6] = LLC-MK2, 0.125 μM, standard deviation (N = 6) in parentheses, read-out: %activity at 0.125 μM
[7] = LLC-MK2, 0.5 μM, standard deviation (N = 6) in parentheses, read-out: %activity at 0.5 μM
[8] = LLC-MK2, 2 μM, standard deviation (N = 6) in parentheses, read-out: %activity at 2 μM
[9] = LLC-MK2, 8 μM, standard deviation (N = 6) in parentheses, read-out: %activity at 8 μM
[10] = LLC-MK2, T. cruzi CL Brener strain, read-out: EC50 (anti-trypanosomal activity)

O=C(Cn1ccnc1[N+](=O)[O-])NCc1ccccc1 [Compound 1, benznidazole]
EC50 [1, 5]: 2.51 µM
inhibition at 0.125 µM [1, 6]: 3%
inhibition at 0.5 µM [1, 7]: 7%
inhibition at 2 µM [1, 8]: 33%
inhibition at 8 µM [1, 9]: 59%
Cytotox LLC-MK2 (LLC-MK2 cells): 41 (8) %
Cytotox Balb/C 3TC [2]: 0 (0) %

CC(C)(F)C[C@H](N[C@@H](c1ccc(-c2ccc(S(C)(=O)=O)cc2)cc1)C(F)(F)F)C(=O)NC1(C#N)CC1 [Compound 4, odanacatib]
Ki (Recombinant cruzain): 0.126 µM
Ki (cathepsin L [3]): 6.31 µM
EC50 [1, 5]: 2.51 µM
inhibition at 0.125 µM [1, 6]: 22%
inhibition at 0.5 µM [1, 7]: 28%
inhibition at 2 µM [1, 8]: 36%
inhibition at 8 µM [1, 9]: 44%
Cytotox LLC-MK2 (LLC-MK2 cells): 31 (4) %
Cytotox Balb/C 3TC [2]: 27 (15) %
Cathepsin L pIC50 (cathepsin L [4]): 5.5 ^d
Cathepsin K pIC50 (Cathepsin K): 9.7 ^d
Cathepsin B pIC50 (Cathepsin B): 6.0 ^d
Cathepsin S pIC50 (Cathepsin S): 7.2 ^d

N#CC1(NC(=O)[C@H](Cc2ccccc2)N[C@H](c2ccccc2)C(F)(F)F)CC1 [Compound 5, (S)-N-(1-cyanocyclopropyl)-3-phenyl-2-(((R)-2,2,2-trifluoro-1-phenyl-ethyl)amino)propanamide]
Ki (Recombinant cruzain): 2.51 µM
Ki (cathepsin L [3]): 0.794 µM
EC50 [1, 5]: 0.126 µM
inhibition at 0.125 µM [1, 6]: 44%
inhibition at 0.5 µM [1, 7]: 55%
inhibition at 2 µM [1, 8]: 62%
inhibition at 8 µM [1, 9]: 70%
EC50 [1, 10]: 0.12 µM
Cytotox LLC-MK2 (LLC-MK2 cells): 0 (0) %
Cytotox Balb/C 3TC [2]: 1 (7) %

N#CCNC(=O)[C@@H]1CCCC[C@H]1C(=O)N1CCCCC1 [Compound 7]
Ki (Recombinant cruzain): 7.94 µM
inhibition at 0.125 µM [1, 6]: 0%
inhibition at 0.5 µM [1, 7]: 2%
inhibition at 2 µM [1, 8]: 9%
inhibition at 8 µM [1, 9]: 12%
Cytotox LLC-MK2 (LLC-MK2 cells): 4 (3) %
Cytotox Balb/C 3TC [2]: 2 (7) %
Cathepsin L pIC50 (cathepsin L [4]): < 4 ^e
Cathepsin K pIC50 (Cathepsin K): 7.1 ^e
Cathepsin B pIC50 (Cathepsin B): 5.1 ^e
Cathepsin S pIC50 (Cathepsin S): 5.7 ^e

N#CCNC(=O)[C@@H]1CCCC[C@H]1C(=O)N1CCN(c2ccccc2)CC1 [Compound 8]
Ki (Recombinant cruzain): 5.01 µM
inhibition at 0.125 µM [1, 6]: 1%
inhibition at 0.5 µM [1, 7]: 7%
inhibition at 2 µM [1, 8]: 21%
inhibition at 8 µM [1, 9]: 35%
Cytotox LLC-MK2 (LLC-MK2 cells): 29 (8) %
Cytotox Balb/C 3TC [2]: 0 (0) %
Cathepsin L pIC50 (cathepsin L [4]): < 4 ^e
Cathepsin K pIC50 (Cathepsin K): 8.1 ^e
Cathepsin B pIC50 (Cathepsin B): 6.3 ^e
Cathepsin S pIC50 (Cathepsin S): 6.0 ^e

CS(=O)(=O)c1ccc(N2CCN(C(=O)[C@@H]3CCCC[C@H]3C(=O)NC3(C#N)CC3)CC2)cc1 [Compound 9]
Ki (Recombinant cruzain): 5.01 µM
IC50 (human Cat L): > 10 µM
inhibition at 0.125 µM [1, 6]: 6%
inhibition at 0.5 µM [1, 7]: 15%
inhibition at 2 µM [1, 8]: 30%
inhibition at 8 µM [1, 9]: 33%
Cytotox LLC-MK2 (LLC-MK2 cells): 0 (0) %
Cytotox Balb/C 3TC [2]: 3 (7) %
Cathepsin K pIC50 (Cathepsin K): 7.7 ^g
Cathepsin B pIC50 (Cathepsin B): 5.6 ^g
Cathepsin S pIC50 (Cathepsin S): 5.7 ^g

COc1ccc(N2CCN(C(=O)[C@@H]3CCCC[C@H]3C(=O)NC3(C#N)CC3)[C@H](C)C2)cc1OC [Compound 10]
Ki (Recombinant cruzain): 1.26 µM
IC50 (human Cat L): > 10 µM
inhibition at 0.125 µM ([1]; LLC-MK2, read-out: %activity at 0.125 μM): 6%
inhibition at 0.5 µM ([1]; LLC-MK2, read-out: %activity at 0.5 μM): 22%
inhibition at 2 µM ([1]; LLC-MK2, read-out: %activity at 2 μM): 26%
inhibition at 8 µM ([1]; LLC-MK2, read-out: %activity at 8 μM): 28%
Cytotox LLC-MK2 (LLC-MK2 cells): 15(3) %
Cytotox Balb/C 3TC [2]: 0 (0) %
Cathepsin K pIC50 (Cathepsin K): 8.4 ^g
Cathepsin B pIC50 (Cathepsin B): 5.7 ^g
Cathepsin S pIC50 (Cathepsin S): 5.8 ^g

COc1cc(N2CCN(C(=O)[C@@H]3CCCC[C@H]3C(=O)NC3(C#N)CC3)[C@H](C)C2)ccc1C1CC1 [Compound 11]
Ki (Recombinant cruzain): 2.51 µM
IC50 (human Cat L): > 10 µM
EC50 [1, 5]: 0.251 µM
inhibition at 0.125 µM [1, 6]: 33%
inhibition at 0.5 µM [1, 7]: 62%
inhibition at 2 µM [1, 8]: 76%
inhibition at 8 µM [1, 9]: 83%
EC50 [1, 10]: 0.25 µM
Cytotox LLC-MK2 (LLC-MK2 cells): 36 (7) %
Cytotox Balb/C 3TC [2]: 0 (0) %
Cathepsin K pIC50 (Cathepsin K): 8.5 ^g
Cathepsin B pIC50 (Cathepsin B): 5.9 ^g
Cathepsin S pIC50 (Cathepsin S): 5.9 ^g

Cc1nn(C)c2cc(N3CCN(C(=O)[C@@H]4CCCC[C@H]4C(=O)NC4(C#N)CC4)[C@H](C)C3)ccc12 [Compound 12]
Ki (Recombinant cruzain): 3.16 µM
IC50 (human Cat L): > 10 µM
EC50 [1, 5]: 1.26 µM
inhibition at 0.125 µM [1, 6]: 20%
inhibition at 0.5 µM [1, 7]: 40%
inhibition at 2 µM [1, 8]: 45%
inhibition at 8 µM [1, 9]: 50%
EC50 [1, 10]: 1.3 µM
Cytotox LLC-MK2 (LLC-MK2 cells): 8 (2) %
Cytotox Balb/C 3TC [2]: 0 (0) %
Cathepsin K pIC50 (Cathepsin K): 8.0 ^g
Cathepsin B pIC50 (Cathepsin B): 6.1 ^g
Cathepsin S pIC50 (Cathepsin S): 5.9 ^g
